Here are results for two molecules from patent US5281406A, “Recovery of C60 and C70 buckminsterfullerenes from carbon soot by supercritical fluid extraction and their separation by adsorption chromatography” (Analytical Bio-Chemistry Laboratories, Inc., priority 1992, dated 1994).

Data set [1] is described as follows: Solubility of C60 and C70 fullerenes in methylene chloride/toluene mixtures. The class given is physicochemical. The text has this:
The solubilities of C60 and C70 were established for the binary solvent system of toluene and methylene chloride using mixtures varying in composition from 100% to 0% of each component.

A short description of data set [2]: Reported or stated solubility in single organic solvents (benzene, liquid toluene, organic solvents). The class given is physicochemical.
The conditions of data set [3]: room temperature; cited from earlier work.
The conditions of data set [4]: stable to pressures up to; Yoo and Nellis, Science, 254, p. 1489, 1991; cited from earlier work.
For data set [5] the following is noted: many organic solvents, several weeks; cited from earlier work.
The mark [6] stands for this setting: 0.0% CH2Cl2 / 100% toluene, duplicate samples 1 and 2.
Where [7] appears, read: 25.0% CH2Cl2 / 75% toluene, duplicate samples 3 and 4.
Setting [8] is: 50.0% CH2Cl2 / 50% toluene, duplicate samples 5 and 6.
Where [9] appears, read: 75.0% CH2Cl2 / 25% toluene, duplicate samples 7 and 8.
Setting [10] is: 100.0% CH2Cl2 / 0% toluene, duplicate samples 9 and 10.

Converted amounts (≈) assume the structure as drawn. “And” between values parts separate entries of the source, which are not always exact repeats. Equal entries are not always repeated.

As to `c12c3c4c5c1c1c6c7c2c2c8c3c3c9c4c4c%10c5c5c1c1c6c6c%11c%12c%13c%14c%15c%16c%17c%14c%14c%18c%13c%11c1c1c5c%10c5c(c%14c%10c%17c%11c%13c%16c%14c%16c%15c%12c%12c%16c(c2c7c%126)c2c8c3c(c%13c%142)c2c9c4c5c%10c%112)c%181` [C70], the Solubility (in general, the dissolved amount per volume that the medium holds) was 611 µg/mL and 597 µg/mL in data set [1] (setting [6]); 500 µg/mL (≈ 595 µM) in data set [1] (setting [7]); 328 µg/mL and 330 µg/mL in data set [1] (setting [8]); 184 µg/mL (≈ 219 µM) in data set [1] (setting [9]); 106 µg/mL and 95 µg/mL in data set [1] (setting [10]). Besides, the “Solubility in organic solvents (in words)” value in data set [2] is reported as “very low solubility”.

As to `c12c3c4c5c1c1c6c7c2c2c8c3c3c9c4c4c%10c5c5c1c1c6c6c%11c7c2c2c7c8c3c3c8c9c4c4c9c%10c5c5c1c1c6c6c%11c2c2c7c3c3c8c4c4c9c5c1c1c6c2c3c41` [C60, buckminsterfullerene], the Solubility is 3530 µg/mL and 3470 µg/mL in data set [1] (setting [6]); 2830 µg/mL (≈ 3930 µM) in data set [1] (setting [7]); 1783 µg/mL and 1797 µg/mL in data set [1] (setting [8]); 895 µg/mL and 896 µg/mL in data set [1] (setting [9]); 556 µg/mL and 526 µg/mL in data set [1] (setting [10]). Besides, the “Solubility in organic solvents (in words)” value in data set [2] is given as “very low solubility”. Besides, the “Reported solubility in benzene” value in data set [3] is 5000 µg/mL. Also, the “Reported stability to pressure” value in data set [4] was “up to 2.5×10^6 psi”. In data set [5], the “Stability in organic solvents (in words)” value is “stable in many organic solvents for several weeks”.
